These results are taken from patent US20120029190A1, “COMPOUNDS FOR TREATING DISORDERS MEDIATED BY METABOTROPIC GLUTAMATE RECEPTOR 5, AND METHODS OF USE THEREOF” (priority 2009, published 2012).

Read-outs that look alike come from different tables or passages of the source.

For this test, the target named is T1, human recombinant mGluR5 receptor (Homo sapiens, UniProt P41594).
T1 construct: expressed in transfected cells; expression induced with doxycycline
The test is described as follows: mGluR5 in vitro functional assay (aequorin cell line, inhibition of glutamate EC80 response). It is filed as cell-based. The settings on record: aequorin cell line expressing human mGluR5, reference agonist glutamate at EC80, obtained in duplicate, read-out: IC50. The procedure: B. mGluR5 In Vitro Functional Assay
The functional assay utilized an aequorin cell line expressing human recombinant mGluR5 receptor, an inducible cell line that expresses the human receptor under the control of a promoter induced by doxycycline.
mGluR5 cells in mid-log phase, grown 18 hours prior to the test in antibiotic-free media supplemented with doxycycline (600 ng/mL), were detached by gentle flushing with PBS-EDTA ([…]). The cells were recovered by centrifugation and resuspended in assay buffer (HBSS, […], 3 ug/mL glutamate-pyruvate transaminase, […] MEM sodium pyruvate, 0.1% BSA protease-free). Cells were incubated at room temperature for at least 4 hours with Coelenterazine h (Molecular Probes). The cell suspension (60 uL) containing the test compound was mixed with a solution of reference agonist (30 uL) at its EC80, following an incubation of 3 min. after the first injection. The resulting emission of light was recorded using a Hamamatsu Functional Drug Screening System 6000 (FDSS 6000). To standardize the emission of recorded light (determination of the “100% signal’) across plates and across different experiments, some of the wells contained 100 uM digitonin or a saturating concentration (20 mM) of ATP. Plates also contained the reference agonist (glutamate) at a concentration equivalent to the EC80 obtained during assay validation. Percentages of inhibition were calculated on the basis of the activation induced by the reference agonist at a concentration equal to the EC80. Dose-response data were analyzed with XLFit (IDBS) software using nonlinear regression applied to a sigmoidal dose-response model.

T1 sequence (P41594 21-1212): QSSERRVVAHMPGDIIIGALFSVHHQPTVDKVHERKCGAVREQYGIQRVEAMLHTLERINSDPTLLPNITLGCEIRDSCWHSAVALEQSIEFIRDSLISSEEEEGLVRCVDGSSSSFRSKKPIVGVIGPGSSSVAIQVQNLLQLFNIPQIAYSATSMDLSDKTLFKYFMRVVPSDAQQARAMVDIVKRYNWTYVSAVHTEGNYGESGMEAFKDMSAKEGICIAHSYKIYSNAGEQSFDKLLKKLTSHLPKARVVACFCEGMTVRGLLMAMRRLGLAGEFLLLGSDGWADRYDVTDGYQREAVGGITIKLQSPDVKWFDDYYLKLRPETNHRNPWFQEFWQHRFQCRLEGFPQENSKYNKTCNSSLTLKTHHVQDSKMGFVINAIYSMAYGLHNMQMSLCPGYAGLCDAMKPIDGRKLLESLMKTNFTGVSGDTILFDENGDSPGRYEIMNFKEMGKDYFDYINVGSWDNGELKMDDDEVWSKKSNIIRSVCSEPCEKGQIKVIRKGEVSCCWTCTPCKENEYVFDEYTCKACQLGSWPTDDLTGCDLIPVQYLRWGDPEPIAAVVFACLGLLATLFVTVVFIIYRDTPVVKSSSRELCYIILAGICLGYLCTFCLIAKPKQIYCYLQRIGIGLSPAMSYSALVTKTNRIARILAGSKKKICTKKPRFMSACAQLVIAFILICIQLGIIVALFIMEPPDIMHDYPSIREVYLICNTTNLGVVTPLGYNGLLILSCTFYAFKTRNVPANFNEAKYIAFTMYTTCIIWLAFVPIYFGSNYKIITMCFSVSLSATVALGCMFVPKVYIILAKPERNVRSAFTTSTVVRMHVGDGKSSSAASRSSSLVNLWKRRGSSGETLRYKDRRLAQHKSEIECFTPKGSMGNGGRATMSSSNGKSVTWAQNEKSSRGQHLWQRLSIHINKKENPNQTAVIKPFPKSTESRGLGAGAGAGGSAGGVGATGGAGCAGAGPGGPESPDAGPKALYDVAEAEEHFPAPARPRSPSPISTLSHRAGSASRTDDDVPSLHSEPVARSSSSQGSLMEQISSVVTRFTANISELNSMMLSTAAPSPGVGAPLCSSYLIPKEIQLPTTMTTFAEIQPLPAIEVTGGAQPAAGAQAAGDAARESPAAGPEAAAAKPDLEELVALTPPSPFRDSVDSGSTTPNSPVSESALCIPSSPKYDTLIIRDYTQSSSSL

In the case of `Clc1cccc(-c2nc3c(o2)CCN(Cc2ccccn2)C3)c1` [Compound 50, 2-(3-Chlorophenyl)-5-(pyridin-2-ylmethyl)-4,5,6,7-tetrahydrooxazolo[4,5-c]pyridine], where the note is “Table 1”, the 50% inhibitory concentration (IC50) was under 10000 nM.
Still for that read-out and setting: to `N#Cc1cccc(N2CCc3oc(-c4ccccn4)nc3C2)c1` [Compound 23, 3-(2-(Pyridin-2-yl)-6,7-dihydrooxazolo[4,5-c]pyridin-5(4H)-yl)benzonitrile] belongs under 1000 nM.
Regarding `COC(=O)N1CCc2oc(-c3ccccn3)nc2C1` [Compound 151, Methyl 2-(pyridin-2-yl)-6,7-dihydrooxazolo[4,5-c]pyridine-5(4H)-carboxylate], the half-maximal inhibitory concentration (IC50) (Table 2) is over 10000 nM.
With `N#Cc1cccnc1N1CCc2oc(-c3cccc(Cl)c3)nc2C1` [Compound 39, 2-(2-(3-Chlorophenyl)-6,7-dihydrooxazolo[4,5-c]pyridin-5(4H)-yl)nicotinonitrile], the IC50 (Table 1) was under 1000 nM.
For the compound `Cc1nc(-c2nc3c(o2)CCN(c2ccccn2)C3)cs1` [Compound 161, 2-(2-Methylthiazol-4-yl)-5-(pyridin-2-yl)-4,5,6,7-tetrahydrooxazolo[4,5-c]pyridine], the IC50 (Table 2) is under 1000 nM.
On to `c1ccc(-c2nc3c(o2)CN(c2nccs2)CC3)nc1` [Compound 22, 2-(Pyridin-2-yl)-5-(thiazol-2-yl)-4,5,6,7-tetrahydrooxazolo[5,4-c]pyridine], for which the 50% inhibitory concentration (IC50) (Table 1) is under 10000 nM.
On to `N#Cc1cc(F)cc(N2CCn3cc(-c4ccccn4)nc3C2)c1` [Compound 109, 3-Fluoro-5-(2(pyridin-2-yl)-5,6-dihydroimidazo-[1,2-a]pyrazin-7(8H)-yl)benzonitrile], for which the IC50 (Table 1) was under 1000 nM.
For `Cc1ccc(-c2nc3c(o2)CN(c2cccc(C#N)c2)CC3)nc1` [Compound 74, 3-(2-(5-Methylpyridin-2-yl)-6,7-dihydrooxazolo[5,4-c]pyridin-5(4H)-yl)benzonitrile], the half-inhibitory concentration (IC50) (Table 1) is under 10000 nM.
For the compound `N#Cc1cncc(N2CCc3oc(-c4ccccn4)nc3C2)c1` [Compound 25, 5-(2-(Pyridin-2-yl)-6,7-dihydrooxazolo[4,5-c]pyridin-5(4H)-yl)nicotinonitrile], the IC50 (Table 1) is under 1000 nM.
Take `Clc1ccc(Cl)c(N2CCc3oc(-c4ccccn4)nc3C2)c1` [Compound 173, 5-(2,5-Dichlorophenyl)-2-(pyridin-2-yl)-4,5,6,7-tetrahydrooxazolo[4,5-c]pyridine]: the IC50 (Table 2) was under 1000 nM.
For the compound `N#Cc1cccnc1N1CCc2oc(-c3ccc(C(F)(F)F)cc3)nc2C1` [Compound 44, 2-(2-(4-(Trifluoromethyl)phenyl)-6,7-dihydrooxazolo[4,5-c]pyridin-5(4H)-yl)nicotinonitrile], under “Table 1”, the IC50 was over 10000 nM.
On the same count and under the same terms, to `N#Cc1cc(F)cc(N2CCCc3nc(-c4ccccn4)oc3C2)c1` [Compound 90, 3-Fluoro-5-(2-(pyridin-2-yl)-7,8-dihydro-4H-oxazolo[5,4-c]azepin-5(6H)-yl)benzonitrile] belongs under 1000 nM.
In the case of `Fc1ccc(-c2nc3c(o2)CCCN(c2cccc(F)c2)C3)nc1` [Compound 133, 5-(3-fluorophenyl)-2-(5-fluoropyridin-2-yl)-5,6,7,8-tetrahydro-4H-oxazolo[4,5-c]azepine], under “Table 2”, the IC50 is under 1000 nM.
As to `N#Cc1nccnc1N1CCc2oc(-c3ccccc3)nc2C1` [Compound 52, 3-(2-Phenyl-6,7-dihydrooxazolo[4,5-c]pyridin-5(4H)-yl)pyrazine-2-carbonitrile], the IC50 (Table 1) is under 10000 nM.
`N#Cc1cc(N2CCOCC2)cc(N2CCc3nc(-c4ccccn4)oc3C2)c1` [Compound 11, 3-Morpholino-5-(2-(pyridin-2-yl)-6,7-dihydrooxazolo[5,4-c]pyridin-5(4H)-yl)benzonitrile]: where the note is “Table 1”, the IC50 was over 10000 nM.
As for `COc1cccc(-c2nc3c(o2)CN(c2ncccc2C#N)CC3)c1` [Compound 72, 2-(2-(3-Methoxyphenyl)-6,7-dihydrooxazolo[5,4-c]pyridin-5(4H)-yl)nicotinonitrile], the IC50 (Table 1) was under 1000 nM.
`N#Cc1cccc(N2Cc3nc(-c4ccccn4)oc3C2)c1` [Compound 84, 3-(2-(Pyridin-2-yl)-4H-pyrrolo[3,4-d]oxazol-5(6H)-yl)benzonitrile]: for the setting “Table 1”, the IC50 was under 1000 nM.
Consider `Clc1cccc(-c2nc3c(o2)CCN(c2cccnc2)C3)c1` [Compound 51, 2-(3-Chlorophenyl)-5-(pyridin-3-yl)-4,5,6,7-tetrahydrooxazolo[4,5-c]pyridine], for which, under “Table 1”, the half-inhibitory concentration (IC50) was under 1000 nM.
Regarding `N#Cc1cccc(N2CCc3nc(-c4cccc[n+]4[O-])oc3C2)c1` [Compound 15, 2-(5-(3-Cyanophenyl)-4,5,6,7-tetrahydrooxazolo[5,4-c]pyridin-2-yl)pyridine 1-oxide], where the note is “Table 1”, the half-maximal inhibitory concentration (IC50) is under 1000 nM.
`N#Cc1c(F)cccc1N1CCc2oc(-c3ccccn3)nc2C1` [Compound 189, 2-Fluoro-6-(2-(pyridin-2-yl)-6,7-dihydrooxazolo[4,5-c]pyridin-5(4H)-yl)benzonitrile]: the IC50 (Table 2) is under 1000 nM.
Still for that read-out and setting: the same measure for `N#Cc1cc(F)cc(N2CCCc3oc(-c4ccc(F)cn4)nc3C2)c1` [Compound 135, 3-fluoro-5-(2-(5-fluoropyridin-2-yl)-7,8-dihydro-4H-oxazolo[4,5-c]azepin-5(6H)-yl)benzonitrile]: under 1000 nM.
In the case of `N#Cc1cccc(N2CCc3oc(-c4ccncc4)nc3C2)c1` [Compound 78, 3-(2-(Pyridin-4-yl)-6,7-dihydrooxazolo[4,5-c]pyridin-5(4H)-yl)benzonitrile], the concentration for half-maximal inhibition (IC50) (Table 1) is over 10000 nM.
On to `Clc1ccc(N2CCCc3oc(-c4ccccn4)nc3C2)cc1` [Compound 212, 5-(4-Chlorophenyl)-2-(pyridin-2-yl)-5,6,7,8-tetrahydro-4H-oxazolo[4,5-c]azepine], for which, where the note is “Table 2”, the IC50 was under 1000 nM.
On to `Fc1cc(F)cc(N2CCc3oc(-c4ccccn4)nc3C2)c1` [Compound 31, 5-(3,5-Difluorophenyl)-2-(pyridin-2-yl)-4,5,6,7-tetrahydrooxazolo[4,5-c]pyridine], for which, where the note is “Table 1”, the half-inhibitory concentration (IC50) was under 1000 nM.
`N#Cc1cccc(N2CCn3cc(-c4ccccn4)nc3C2)c1` [Compound 110, 3-(2(Pyridin-2-yl)-5,6-dihydroimidazo[1,2-a]pyrazin-7(8H)-yl)benzonitrile]: the IC50 (Table 1) was under 1000 nM.
Take `COc1cccc(-c2nc3c(o2)CN(c2ccccn2)CC3)c1` [Compound 71, 2-(3-Methoxyphenyl)-5-(pyridin-2-yl)-4,5,6,7-tetrahydrooxazolo[5,4-c]pyridine]: the IC50 (Table 1) was under 10000 nM.
In the case of `N#Cc1cc(Br)cc(N2CCc3nc(-c4ccccn4)oc3C2)c1` [Compound 10, 3-Bromo-5-(2-(pyridin-2-yl)-6,7-dihydrooxazolo[5,4-c]pyridin-5(4H)-yl)benzonitrile], the IC50 (Table 1) was under 1000 nM.
In the case of `O=C(CN1CCc2oc(-c3cccc(Cl)c3)nc2C1)c1ccc(F)cc1` [Compound 190, 2-(2-(3-Chlorophenyl)-6,7-dihydrooxazolo[4,5-c]pyridin-5(4H)-yl)-1-(4-fluorophenyl)ethanone], the half-inhibitory concentration (IC50) (Table 2) was under 10000 nM.
Take `N#Cc1cccc(-c2nc3c(o2)CN(c2cccc(C#N)c2)CC3)c1` [Compound 67, 3,3′-(6,7-Dihydrooxazolo[5,4-c]pyridine-2,5(4H)-diyl)dibenzonitrile]: the IC50 (Table 1) was under 1000 nM.
As for `O=C(CN1CCc2oc(-c3cccc(F)c3)nc2C1)c1ccc(F)cc1` [Compound 191, 1-(4-Fluorophenyl)-2-(2-(3-fluorophenyl)-6,7-dihydrooxazolo[4,5-c]pyridin-5(4H)-yl)ethanone], the 50% inhibitory concentration (IC50) (Table 2) is over 10000 nM.
